Some results are limits rather than exact numbers.

For assay [1], the system named is HIV (LAV strain). Put plainly: Anti-HIV/LAV activity in CEM-F cells, p-24 gag protein ELISA. Format: cell-based. The settings on record: Human immunodeficiency virus 1, 192 h, eight days, p-24 gag protein in supernatant, read-out: HIV (ID50). The method, then:
The anti-HIV/LAV activity was measured in cultures of CEM-F cells. The CEM cells were infected with approximately 30 TCID₅₀ (50% tissue culture infectious dose) of HIV (LAV strain). The cells were then incubated for 45 minutes at 37°C. The test compounds, in culture medium, were added at various concentrations to the infected cells and then incubated for a further eight days. After eight days, the antiviral activity was evaluated in the culture media supernatant for p-24 gag protein by an enzyme capture assay (ELISA). The antiviral activity was expressed as the dose that inhibits 50% of the virus expression (ID₅₀ in µM) as detected by the assay described.
(ELISA stands for enzyme-linked immunosorbent assay.)

The test system of assay [2] is Murine leukemia virus (MuLV). Briefly: UV-XC plaque assay against murine retroviruses. The conditions noted are these: SC1, SC-1 cells. Type of assay: cell-based. The method, then: The compounds were evaluated for antiviral activity against Murine leukemia virus (MuLV) strains using the UV-XC plaque assay (Rowe, et al, "Virology", 42:1136, 1970).
The MuLV strains were grown in feral mouse cells (SC-1) and used for antiviral tests using the UV-XC plaque assay. Briefly, SC-1 cells are grown as monolayers in 4-well tissue culture plates and inoculated with approximately 50-100 plaque forming units of MuLV in 0.5 mL of 5% EMEM containing 20 ug/mL DEAE/Dextran. After 1 hour adsorption, the inoculum is removed and 5 mL of 5% EMEM containing three-fold dilutions of the appropriate drug are added. Five days later, the cultures are UV-irradiated with an ultraviolet lamp and rat XC sarcoma cells are added to the cultures. Three to four days after UV-irradiation, the cell cultures are stained with Giemsa stain and the plaques are enumerated. Antiviral activity is expressed in terms of the reduction in the mean number of UV-XC plaques counted in the drug treated, virus-infected cultures compared with mean number of plaques counted in untreated, virus-infected control cultures.

For `Nc1ncnc2c1ncn2[C@H]1C[C@H](CO)[C@@H](CO)O1` [Example 25, 9-[2,3-Dideoxy-3-C-hydroxymethyl-β-D-erythro-pentofuranosyl]adenine], in assay [1], the IC50 is above 10 µM. On to `Cc1cn([C@H]2C[C@H](N=[N+]=[N-])[C@@H](CO)O2)c(=O)[nH]c1=O` [AZT, 3′-Azido-3′-deoxythymidine, reference compound], for which the results for the IC50 in assay [2] and in assay [1] were 0.0066 µM and 1 µM, respectively.

`Nc1ccn([C@H]2C[C@H](CO)[C@@H](CO)O2)c(=O)n1` [Example 16², 1-(2,3-Dideoxy-3-C-hydroxymethyl-β-D-erythro-pentofuranosyl)cytosine]: the IC50 is 0.06 µM in assay [2] and above 0.1 µM in assay [1].

Turning to `Cc1cn([C@@H]2C[C@H](CO)[C@@H](CO)O2)c(=O)[nH]c1=O` [Example 4³, 1-(2,3-Dideoxy-3-C-hydroxymethyl-α-D-erythropentofuranosyl)thymine], the IC50 in assay [2] is above 32 µM. Take `Nc1ccn([C@@H]2O[C@H](CO)[C@@H](CO)[C@H]2O)c(=O)n1` [Example 8, 1-(3-Deoxy-3-C-hydroxymethyl-β-D-ribofuranosyl)cytosine]: the results for the IC50 in assay [2] and in assay [1] were above 100 µM and 0.8 µM, respectively.

With `Nc1ccn([C@@H]2C[C@H](CO)[C@@H](CO)O2)c(=O)n1` [Example 16³, 1-(2,3-Dideoxy-3-C-hydroxymethyl-α-D-erythro-pentofuranosyl)cytosine], in assay [1], the IC50 was 4.7 µM. For `Cc1cn([C@H]2C[C@H](CO)[C@@H](CO)O2)c(=O)[nH]c1=O` [Example 4², 1-(2,3-Dideoxy-3-C-hydroxymethyl-β-D-erythro-pentofuranosyl)thymine], the IC50 was 17.7 µM in assay [2] and above 10 µM in assay [1]. For `O=c1ccn([C@H]2C[C@H](CO)[C@@H](CO)O2)c(=O)[nH]1` [Example 12, 1-(2,3-Dideoxy-3-C-hydroxymethyl-β-D-erythro-pentofuranosyl)uracil], in that order: 83 µM and above 10 µM. In the case of `O=c1[nH]cnc2c1ncn2[C@H]1C[C@H](CO)[C@@H](CO)O1` [Example 26, 9-(2,3-Dideoxy-3-C-hydroxymethyl-β-D-erythro-pentofuranosyl)hypoxanthine], the IC50 is 5 µM in assay [2] and above 10 µM in assay [1].

The record behind these values is patent publication EP0391411A2, “3'-Substituted methyl nucleosides as antiviral agents” (Bristol-Myers Squibb Company, priority 1989, dated 1990).
